The target of the test is T1, human orexin-2 (hOX2) receptor (Homo sapiens, UniProt O43614).
T1 construct: expressed in transfected cells
T1 sequence (O43614 1-444): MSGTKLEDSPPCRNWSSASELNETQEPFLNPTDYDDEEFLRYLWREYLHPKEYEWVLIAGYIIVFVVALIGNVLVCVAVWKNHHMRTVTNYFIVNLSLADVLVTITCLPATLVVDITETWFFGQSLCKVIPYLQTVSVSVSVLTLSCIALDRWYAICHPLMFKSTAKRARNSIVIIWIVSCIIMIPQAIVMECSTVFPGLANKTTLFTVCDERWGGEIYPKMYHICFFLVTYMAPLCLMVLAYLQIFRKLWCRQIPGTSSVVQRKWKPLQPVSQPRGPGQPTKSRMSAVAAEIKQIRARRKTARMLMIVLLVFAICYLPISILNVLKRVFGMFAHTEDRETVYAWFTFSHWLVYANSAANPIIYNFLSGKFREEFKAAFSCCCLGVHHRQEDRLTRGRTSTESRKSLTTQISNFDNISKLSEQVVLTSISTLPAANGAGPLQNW
The test can be described thus: Intracellular Ca2+ mobilization assay (FLIPR), antagonism of orexin-A at EC80. The class given is cell-based. The following applies: CHO(dHFr-) cells stably expressing hOX2; orexin-A at EC80 as agonist; antagonist applied 25 min before; Kb=IC50/(1+[A]/EC50); read-out: Kb (μM) OX2R (human). The protocol: Intracellular Ca^2+ Mobilization Assay
The Chinese Hamster Ovary (dHFr-) mutant cell line stably expressing human orexin-1 (hOX1) or human orexin-2 (hOX2) receptors were maintained in Dulbecco's Modified Eagle Medium (1×) with GlutaMax™1, 4500 mg/L D-Glucose and Sodium Pyruvate (Catalog No. 31966-021, Invitrogen, Carlsbad, Calif.), 5% dialyzed fetal calf serum (Catalog No. 26400-044), 100 μg/ml penicillin and 100 μg/ml streptomycin. The cells were seeded at 5×10^4 cells/well in the poly-D-lysine treated, 96-well, black/clear-bottomed plates (Catalog No. BD356640, BD Biosciences, Palo Alto, Calif.). 24 h later, the cells were loaded for 1 h at 37° C. with 4 μM Flou-4 acetoxymethyl ester (Catalog No. F-14202, Molecular Probes, Eugene, Oreg.) in FLIPR buffer (1×HBSS, 20 mM HEPES, 2.5 mM Probenecid). Hanks' Balanced Salt Solution (HBSS) (10×) (catalog No. 14065-049) and HEPES (1M) (catalog No. 15630-056) were purchased from Invitrogen, Carlsbad, Calif. Probenecid (250 mM) (catalog No. P8761) was from Sigma, Buchs, Switzerland. The cells were washed five times with FLIPR buffer to remove excess dye and intracellular calcium mobilization, [Ca^2+]i were measured using a Fluorometric Imaging Plate Reader (FLIPR-96, Molecular Devices, Menlo Park, Calif.) as described previously (Malherbe et al., Mol. Pharmacol., 64, 823-832, 2003). Orexin A (catalog No. 1455, Toris Cookson Ltd, Bristol, UK) was used as agonist. Orexin A ([…] stock solution in DMSO) was diluted in FLIPR buffer+0.1% BSA. The EC50 and EC80 values of orexin-A were measured daily from standard agonist concentration-response curves in CHO(dHFr-)-OX1R and -OX2R cell lines. All compounds were dissolved in 100% DMSO. Inhibition curves were determined by addition of 11 concentrations (0.0001-10 μM) of inhibitory compounds and using EC80 value of orexin-A as agonist (a concentration which gave 80% of max agonist response, determined daily). The antagonists were applied 25 min (incubation at 37° C.) before the application of the agonist. Responses were measured as peak increase in fluorescence minus basal, normalized to the maximal stimulatory effect induced by EC80 value of orexin-A or orexin-B. Inhibition curves were fitted according to the Hill equation: y=100/(1+(x/IC50)^nH), where nH=slope factor using Excel-fit 4 software (Microsoft). Kb values were calculated according to the following equation Kb=IC50/(1+[A]/EC50) where A is the concentration of agonist added which is very close to agonist EC80 value, and IC50 and EC50 values were derived from the antagonist inhibition and orexin-A or B agonist curves, respectively.
For orientation: Calcium flux is commonly read through the fluorescence of an indicator in the cells.
What is called Kb is the equilibrium dissociation constant of an antagonist, usually derived from a functional assay. On to `Cc1ccc(C(F)(F)F)c(C(=O)N2CC[C@@H](CNc3nc4ccc(Cl)cc4o3)C2)c1` [Example 14, {(S)-3-[(6-Chloro-benzooxazol-2-ylamino)-methyl]-pyrrolidin-1-yl}-(5-methyl-2-trifluoromethyl-phenyl)-methanone], for which the Kb was 0.304 µM.

For `COc1cccc(OC)c1C(=O)N1CCC(CNc2nc3ccc(Cl)cc3o2)C1` (stereo not shown) [Example 1, {3-[(6-Chloro-benzooxazol-2-ylamino)-methyl]-pyrrolidin-1-yl}-(2,6-dimethoxy-phenyl)-methanone], the Kb stood at 0.0292 µM.

`O=C(c1ccccc1OC(F)(F)F)N1CC[C@@H](CNc2nc3ccc(Cl)cc3o2)C1` [Example 12, {(S)-3-[(6-Chloro-benzooxazol-2-ylamino)-methyl]-pyrrolidin-1-yl}-(2-trifluoromethoxy-phenyl)-methanone]: the Kb stood at 0.214 µM.

`Cc1onc(-c2ccccc2)c1C(=O)N1CC[C@@H](CNc2nc3ccc(Cl)cc3o2)C1` [Example 15, {(S)-3-[(6-Chloro-benzooxazol-2-ylamino)-methyl]-pyrrolidin-1-yl}-(5-methyl-3-phenyl-isoxazol-4-yl)-methanone]: the Kb is 0.0819 µM.

In the case of `Cc1ccc(C(F)(F)F)c(C(=O)N2CC[C@@H](CNc3nc4ccc(F)cc4s3)C2)c1` [Example 6, {(S)-3-[(6-Fluoro-benzothiazol-2-ylamino)-methyl]-pyrrolidin-1-yl}-(5-methyl-2-trifluoromethyl-phenyl)-methanone], the Kb was 0.115 µM.

As to `Cc1ccc(Cl)c(C(=O)N2CC[C@@H](CNc3cnc4cc(Cl)ccc4n3)C2)c1` [Example 31, (2-Chloro-5-methyl-phenyl)-{(S)-3-[(6-chloro-quinoxalin-2-ylamino)-methyl]-pyrrolidin-1-yl}-methanone], the antagonist equilibrium constant (Kb) was 0.539 µM.

Turning to `O=C(c1ccccc1OC(F)(F)C(F)F)N1CC[C@@H](CNc2nc3ccc(Cl)cc3o2)C1` [Example 13, {(S)-3-[(6-Chloro-benzooxazol-2-ylamino)-methyl]-pyrrolidin-1-yl}-[2-(1,1,2,2-tetrafluoro-ethoxy)-phenyl]-methanone], the Kb was 0.149 µM.

Source of the values: patent US8748430B2, “Pyrrolidin-3yl-methylamine quinoxaline derivatives” (Hoffmann-La Roche Inc, priority 2008, dated 2014).
